Assay results published in ChEMBL document CHEMBL1131587, “Novel peptidyl phosphorus derivatives as inhibitors of human calpain I” (J Med Chem, 1998).

target: T1, Calpain-1 catalytic subunit (Homo sapiens, UniProt P07384); assay: inhibitory activity measured against recombinant human Calpain-I receptor
T1 sequence (P07384 whole entry): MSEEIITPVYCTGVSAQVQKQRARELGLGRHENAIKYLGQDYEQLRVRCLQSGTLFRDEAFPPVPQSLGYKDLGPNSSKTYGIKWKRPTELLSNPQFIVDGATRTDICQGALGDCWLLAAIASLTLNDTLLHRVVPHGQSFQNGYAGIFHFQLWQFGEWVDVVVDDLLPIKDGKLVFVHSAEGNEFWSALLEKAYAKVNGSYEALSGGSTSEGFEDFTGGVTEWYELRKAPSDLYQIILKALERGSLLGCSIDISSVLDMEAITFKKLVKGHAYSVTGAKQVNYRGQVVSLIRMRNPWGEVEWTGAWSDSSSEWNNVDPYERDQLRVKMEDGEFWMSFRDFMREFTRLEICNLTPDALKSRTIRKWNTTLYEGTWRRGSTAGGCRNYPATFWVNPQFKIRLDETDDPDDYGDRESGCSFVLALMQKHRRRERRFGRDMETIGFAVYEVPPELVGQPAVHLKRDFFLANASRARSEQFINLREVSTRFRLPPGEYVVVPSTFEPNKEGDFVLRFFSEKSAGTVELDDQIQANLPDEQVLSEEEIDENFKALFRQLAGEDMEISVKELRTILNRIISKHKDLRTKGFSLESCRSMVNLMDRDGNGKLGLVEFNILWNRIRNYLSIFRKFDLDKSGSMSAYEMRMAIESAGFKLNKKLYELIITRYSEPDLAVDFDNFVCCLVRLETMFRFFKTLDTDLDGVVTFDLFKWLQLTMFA

Structure (SMILES)	IC50 [µM]
COP(=O)(O)C(=O)[C@@H](CC(C)C)NC(=O)C(CC(C)C)NC(=O)OCc1ccccc1 (stereo not given in full)	5.2
CC(C)CC(NC(=O)OCc1ccccc1)C(=O)N[C@H](CC(C)C)C(=O)P(C)(C)=O (stereo not given in full)	> 10
COP(=O)(OC)C(=O)[C@@H](Cc1ccccc1)NC(=O)C(NC(=O)OCc1ccccc1)C(C)C (stereo not given in full)	7.4
CCOP(=O)(C(=O)[C@@H](CC(C)C)NC(=O)C(CC(C)C)NC(=O)OCc1ccccc1)c1ccccc1 (stereo not given in full)	0.37
CC(C)C(NC(=O)OCc1ccccc1)C(=O)N[C@H](Cc1ccccc1)C(=O)P(=O)(OCc1ccccc1)OCc1ccccc1 (stereo not given in full)	6

Now from value to compound:

IC50 [µM]	Structure (SMILES)
0.43	COP(=O)(OC)C(=O)[C@@H](CC(C)C)NC(=O)C(CC(C)C)NC(=O)OCc1ccccc1 (stereo not given in full)
> 10	CCCCOP(=O)(OCCCC)C(=O)[C@@H](Cc1ccccc1)NC(=O)C(NC(=O)OCc1ccccc1)C(C)C (stereo not given in full)
> 10	CCCCOP(=O)(OCCCC)C(=O)[C@@H](CC(C)C)NC(=O)C(CC(C)C)NC(=O)OCc1ccccc1 (stereo not given in full)
0.35	CC(C)CC(NC(=O)OCc1ccccc1)C(=O)N[C@H](CC(C)C)C(=O)P(=O)(c1ccc(Cl)cc1)c1ccc(Cl)cc1 (stereo not given in full)
0.6	CCOC(=O)[C@@H](CC(C)C)NC(=O)C(CC(C)C)NC(=O)OCc1ccccc1 (stereo not given in full)
